Results on five compounds are retold here after patent publication US8772244B2, “Tubulin inhibitors” (R&D Biopharmaceuticals GmbH, priority 2009, dated 2014).

Common to all, as to type: cell-based
One test has as its system MCF-7 VP. The test can be described thus: BrdU-Assay, IC-50 against cancer cell line MCF-7 VP. Particulars: Homo sapiens, MCF7-VP. An excerpt: (§1) Determination of the IC-50 Concentration Against Various Cancer Cell Lines
(§2) The activity of some representative example compounds of the present invention has been determined with the BrdU-Assay as described in: Porstmann T., Ternynck T., Avrameas S. (1985) “Quantification of 5-bromo-2-deoxyuridine incorporation into DNA: an enzyme immunoassay for the assessment of the lymphoid cell proliferative response.” J. Immunol. Methods 82: 169-179.

The test system of the next test is MCF-7 TX200. Briefly: BrdU-Assay, IC-50 against cancer cell line MCF-7 TX200. Particulars: Homo sapiens; MCF-7 TX200, BrdU-Assay.
Description: as §1, §2

Another test has as its system MCF-7 MX100. The test can be described thus: BrdU-Assay, IC-50 against cancer cell line MCF-7 MX100. Particulars: MCF7/MX100; MCF-7 MX100, BrdU-Assay.
Description: as §1, §2

The test system of the next test is MCF-7. The test can be described thus: BrdU-Assay, IC-50 against cancer cell line MCF-7. The following applies: Homo sapiens, MCF7; MCF-7, BrdU-Assay.
Description: as §1, §2

Another test concerns Skov-3. The test can be described thus: BrdU-Assay, IC-50 against cancer cell line Skov-3. The following applies: Homo sapiens, SK-OV-3; Skov-3, BrdU-Assay.
Description: as §1, §2

The test system of a further test is HCT-116. Briefly: BrdU-Assay, IC-50 against cancer cell line HCT-116. Particulars: Homo sapiens; HCT-116, BrdU-Assay.
Description: as §1, §2

By IC50 is commonly meant the concentration needed to halve the response being measured. A lower IC50 goes with higher potency.

The structures appear in SMILES notation.

Turning to `CCCN(C(=O)C(NC(=O)C1CCCCN1C)[C@@H](C)CC)[C@H](C[C@@H](OCOC)c1nc(C(=O)N[C@@H](Cc2ccccc2)C[C@H](C)CO)cs1)C(C)C` (stereo partly drawn) [MSRD368], the IC50 with MCF-7 VP was 6.38 nM; with MCF-7 TX200 it was 322 nM; in the test on MCF-7 MX100, 4.01 nM; in the test with MCF-7 it was 3.91 nM; with Skov-3 it was 29.9 nM; in the test with HCT-116, 41.1 nM.
Turning to `CCCN(C(=O)C(NC(=O)C1CCCCN1C)[C@@H](C)CC)[C@H](C[C@@H](OC(C)=O)c1nc(C(=O)N[C@H](CO)Cc2ccccc2)cs1)C(C)C` (stereo partly drawn) [MSRD390], the IC50 in the test on MCF-7 VP worked out at 0.54 nM; in the test on MCF-7 TX200 it was 24.4 nM; in the test with MCF-7 MX100 it was 0.2 nM; with MCF-7, 0.27 nM; with Skov-3 it was 1.06 nM; with HCT-116, 1.1 nM.
On to `CC[C@H](C)C(NC(=O)C1CCCCN1C)C(=O)N(C)[C@H](C[C@@H](OC(C)=O)c1nc(C(=O)N[C@@H](Cc2ccccc2)C[C@H](C)CO)cs1)C(C)C` (stereo partly drawn) [MSRD345], for which the IC50 in the test on MCF-7 VP was found to be 1.2 nM; in the test on MCF-7 TX200, 50.6 nM; in the test on MCF-7 MX100, 0.28 nM; in the test with MCF-7 it was 0.4 nM; with Skov-3 it was 1.18 nM; with HCT-116, 1.35 nM.
As to `CC[C@H](C)C(NC(=O)C1CCCCN1C)C(=O)N[C@H](C[C@@H](OC(C)=O)c1nc(C(=O)N[C@@H](Cc2ccccc2)C[C@H](C)CO)cs1)C(C)C` (stereo partly drawn) [SDRD28], the 50% inhibitory concentration (IC50) with MCF-7 VP was determined as 3.04 nM; in the test with MCF-7 TX200, 370 nM; in the test on MCF-7 MX100, 1.41 nM; in the test on MCF-7 it was 0.55 nM; in the test on Skov-3, 3.35 nM; in the test with HCT-116 it was 4.31 nM.
Regarding `CCCN(C(=O)C(NC(=O)C1CCCCN1C)[C@@H](C)CC)[C@H](C[C@@H](OC(C)=O)c1nc(C(=O)N[C@@H](Cc2ccccc2)C[C@H](C)CO)cs1)C(C)C` (stereo partly drawn) [MSRD334], the IC50 came out at 0.88 nM with MCF-7 VP; 15.6 nM in the test with MCF-7 TX200; 0.62 nM with MCF-7 MX100; 0.57 nM with MCF-7; 1.05 nM in the test on Skov-3; 1.06 nM in the test with HCT-116.
